According to the supplement of paper PMC10331698:
± gives the standard deviation of the averaged measurements.

Tests used:
Test in all cases: level (log10 ratio to DMSO vehicle control); higher = higher biomarker level / cell amount than vehicle control
[1] = compound: O=C(O)C(F)(OC(F)(F)C(F)(F)C(F)(F)F)C(F)(F)F [Ammonium perfluoro-2-methyl-3-oxahexanoate] (in Water)
Experimental: (§1)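 BioMAP Diversity Plus panel of 12 human primary cell co-culture systems (3C, 4H, LPS, SAg, BT, BF4T, BE3C, CASM3C, HDF3CGF, KF3CT, MyoF, Mphg). Compounds were added 1 h before stimulation and left for 24 h (MyoF 48 h; BT 72 h for soluble read-outs or 6 d for IgG). Biomarkers were read by ELISA, cytotoxicity by SRB, PBMC viability and proliferation by Alamar Blue. Each well value was divided by the mean of 8 DMSO control wells on the same plate and log10 transformed; duplicate blinded samples were tested at 4 concentrations.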

[2] = compound: O=S(=O)(O)CCC(F)(F)C(F)(F)C(F)(F)C(F)(F)C(F)(F)C(F)(F)C(F)(F)C(F)(F)F [8:2 Fluorotelomer sulfonic acid] (in DMSO)
Experimental: as §1

[3] = compound: C[C@@H]1C[C@H]2[C@@H]3CCC4=CC(=O)C=C[C@]4(C)[C@@]3(F)[C@@H](O)C[C@]2(C)[C@@]1(O)C(=O)COP(=O)(O)O [Dexamethasone sodium phosphate] (in DMSO)
Experimental: as §1

[4] = compound: O=S(=O)(O)C(F)(F)C(F)(F)C(F)(F)C(F)(F)C(F)(F)C(F)(F)C(F)(F)F [Perfluoroheptanesulfonic acid] (in DMSO)
Experimental: as §1

[5] = compound: OCC(F)(F)OC(F)(F)C(F)(F)OC(F)(F)C(F)(F)OC(F)(F)CO [1H,1H,11H,11H-Perfluorotetraethylene glycol] (in DMSO)
Experimental: as §1

[6] = compound: O=C(O)C(F)(F)C(F)(F)C(F)(F)C(F)(F)C(=O)O [Octafluoroadipic acid] (in DMSO)
Experimental: as §1

| Test System | level (log10) ([1]; 6700 nM) | level (log10) ([1]; 20000 nM) | level (log10) ([1]; 60000 nM) | level (log10) ([2]; 6700 nM) | level (log10) ([2]; 20000 nM) | level (log10) ([2]; 60000 nM) | level (log10) ([3]; 1500 nM) | level (log10) ([3]; 4400 nM) | level (log10) ([3]; 13000 nM) | level (log10) ([3]; 40000 nM) | level (log10) ([4]; 1500 nM) | level (log10) ([4]; 4400 nM) | level (log10) ([4]; 13000 nM) | level (log10) ([4]; 40000 nM) | level (log10) ([5]; 6700 nM) | level (log10) ([5]; 20000 nM) | level (log10) ([5]; 60000 nM) | level (log10) ([6]; 6700 nM) | level (log10) ([6]; 20000 nM) | level (log10) ([6]; 60000 nM) |
| --- | --- | --- | --- | --- | --- | --- | --- | --- | --- | --- | --- | --- | --- | --- | --- | --- | --- | --- | --- | --- |
| HDF3CGF:CD54/ICAM-1 | -0.0075 ± 0.015 | -0.0245 ± 0.005 | -0.0555 ± 0.012 | -0.012 ± 0.017 | -0.04 ± 0.011 | -0.0805 ± 0.012 | 0.004 ± 0.0057 | 0.029 ± 0.042 | 0.01 ± 0.038 | 0.026 ± 0.013 | 0.0035 ± 0.035 | -0.007 ± 0.028 | 0.0075 ± 0.023 | -0.0165 ± 0.039 | 0.0025 ± 0.018 | -0.019 ± 0.04 | -0.106 ± 0.091 | 0.004 | 0.004 ± 0.0099 | 0.0005 ± 0.016 |
| HDF3CGF:CD106/VCAM-1 | -0.039 ± 0.021 | -0.044 ± 0.027 | -0.131 ± 0.016 | 0.0015 ± 0.091 | 0.007 ± 0.073 | -0.072 ± 0.045 | -0.006 ± 0.057 | -0.0145 ± 0.035 | -0.054 ± 0.045 | -0.121 ± 0.073 | -0.0245 ± 0.039 | -0.024 ± 0.0042 | -0.0585 ± 0.0064 | -0.101 ± 0.0092 | -0.09 ± 0.0042 | -0.202 | -0.264 ± 0.044 | -0.001 ± 0.0071 | -0.016 ± 0.016 | -0.03 ± 0.04 |
| HDF3CGF:CXCL8/IL-8 | -0.0135 ± 0.015 | 0.001 ± 0.011 | 0.0045 ± 0.0035 | -0.0145 ± 0.0064 | -0.0045 ± 0.0035 | -0.0015 ± 0.026 | -0.039 ± 0.014 | -0.0725 ± 0.005 | -0.0645 ± 0.018 | -0.0515 ± 0.039 | 0.0125 ± 0.005 | -0.0115 ± 0.005 | 0.008 ± 0.0042 | 0.0065 ± 0.026 | 0.0015 ± 0.028 | -0.0025 ± 0.011 | 0.0115 ± 0.0064 | -0.0005 ± 0.0078 | 0.003 ± 0.0014 | 0.0065 ± 0.0092 |
| HDF3CGF:CXCL9/MIG | -0.011 ± 0.028 | -0.02 ± 0.014 | -0.016 ± 0.064 | -0.048 ± 0.034 | -0.0575 ± 0.04 | 0.061 ± 0.034 | 0.042 ± 0.037 | 0.067 ± 0.018 | 0.0555 ± 0.029 | 0.0435 ± 0.042 | -0.0075 ± 0.019 | -0.008 ± 0.013 | -0.0275 ± 0.011 | -0.0505 ± 0.042 | -0.105 ± 0.011 | -0.283 ± 0.03 | -0.525 ± 0.14 | 0.009 ± 0.0028 | 0.007 ± 0.018 | -0.0055 ± 0.015 |
| HDF3CGF:CXCL10/IP-10 | 0.002 ± 0.013 | -0.0085 ± 0.00071 | -0.0025 ± 0.012 | -0.014 ± 0.0014 | -0.0315 ± 0.0092 | -0.06 ± 0.016 | 0.034 ± 0.025 | 0.0615 ± 0.052 | 0.06 ± 0.057 | 0.009 ± 0.072 | 0.0115 ± 0.036 | -0.0195 ± 0.025 | -0.042 ± 0.042 | -0.0805 ± 0.00071 | -0.0435 ± 0.04 | -0.155 ± 0.013 | -0.418 ± 0.059 | 0 ± 0.0057 | -0.005 ± 0.0028 | 0.001 ± 0.0085 |
| HDF3CGF:CXCL11/I-TAC | 0.002 ± 0.0057 | -0.0045 ± 0.019 | 0.002 ± 0.0099 | -0.053 ± 0.027 | -0.0285 ± 0.03 | -0.0865 ± 0.067 | 0.0425 ± 0.00071 | 0.079 ± 0.082 | 0.0905 ± 0.012 | 0.0355 ± 0.087 | -0.042 ± 0.054 | -0.001 ± 0.0099 | -0.035 ± 0.018 | -0.0525 ± 0.035 | -0.0395 ± 0.053 | -0.139 ± 0.077 | -0.319 ± 0.13 | -0.008 ± 0.018 | -0.005 ± 0.0085 | -0.002 ± 0.0042 |
